{"source": "paper PMC11755785", "about": "(Langmuir, 2025)", "key": {"[1]": {"set-up": "method as in PMID 34606770", "conditions": "Chart 1; cited from earlier work"}, "[2]": {"assay": "UVA1 (365 nm) photodegradation in isochoric acetonitrile/water solvent", "assay_type": "physicochemical", "experimental": "(§1) The samples were obtained after passage for appropriate periods and measured using an UV–vis spectrophotometer in the maximum range between 200 and 700 nm (arranged on demand) from long wavelengths toward short wavelengths to avoid unnecessary irradiation of the UV region. To obtain HPLC chromatograms, aliquots of the UV-irradiated solution were obtained by pipetting at 0, 1/5, 1/2, 1, 2, 3, 4, 24, 48, 72, 96, 120, 144, and 168 h for AVB and at 0, 1, 2, 3, and 18 h for CUR. To obtain those of OXB in the absence or presence of β-CD, the invariable samples were certified at 0 and 48 h. For the samples in acetonitrile aqueous solution or methanol aqueous solution at a ratio of 7:3, the time evolution of the UVA1 irradiated solution was examined under similar conditions."}, "[3]": {"assay": "Photostability under solar light, UV–vis spectra", "assay_type": "physicochemical", "conditions": "solar light 4 h, 50 μM", "experimental": "The photostability of the drug under solar light was evaluated using UV–vis spectral measurements. Sample solutions were exposed to solar light outdoors at a sunny location on a latitude of 35.92° N and a longitude of 139.91° E for 4 h, from 12:00 to 16:00, at an average temperature of 284.55 K."}, "[4]": {"conditions": "cited from earlier work"}, "[5]": {"assay": "Phase-solubility diagram with β-CD", "experimental": "The solutions were mechanically shaken at 298 K in a thermostatic chamber, and the supernatant was sampled and filtered after passage for appropriate periods. The concentration of the drug in the supernatant was determined using HPLC.\nThe phase-solubility diagram consists of the equilibrium concentration of the guest drug as the ordinate and the total concentration of the host CD as the abscissa.[45] If a straight line and parabolic curve can be approximated on the phase-solubility diagram, then, the curves are classified as AL- and AP-types in the Higuchi and Connors catalogs, respectively.[45],[46]\nMultiple regression analysis of the measured data set to the total concentration of the host ([CD]) and its squares ([CD]^2) using eq 3 can be used to obtain the stability constants for a combination of the equimolar complex K1:1 and double-host associating complex K1:2.[45],[46] [drawing 3] 3 This is the sum of the dissociated (free) and associated (complexed) drug concentrations. Although the Benesi–Hildebrand equation with the square of the host concentration has been used for parabolic correlations, its validity remains unclear.\nThis curve is classified as the AN-type on the Higuchi and Connors catalog.[45]−[48] The curve is described by eq 4′ according to the Langmuir adsorption isotherm model.[47]−[51] To process with the linear regression analysis of ordinate ([CD]/γ) referred to abscissa ([CD]), the Hanes–Woolf expression in eq 4′ may be used [drawing 4] 4 [drawing 5] 4′ where n indicates the asymptotic concentration of the drug associated with CD (saturation, maximal γ) and K is equivalent to the drug/CD complex stability constant. […] The stoichiometry of a complex of drugs with CD is difficult to determine; the prevailing opinion is that more than one guest molecule incorporates a host molecule and that hydration or ionization of the guest regulates the solubility of the complex.[46]\nSzejtili[46] stated that, in rare cases, the ascending region at lower host concentrations is followed by a plateau region, similar to that of the AN-type saturation curve. Simultaneously, it terminates at any host concentration threshold. It is named the BS-type in the Higuchi and Connors catalog,[45]−[48] and for concentrations higher than the threshold, the guest concentration decreases along a hyperbola, probably according to the solubility product KSP.[49] To analyze this type of pattern, a hypothesis that is yet to be discussed is required.[52] […] At the threshold concentration of CD, the scale of the aggregated dispersoids transcends an upper limit, and the aggregation induces subsequent sedimentation.[52] Thus, the solubility product may be considered a property of poorly soluble aggregated dispersoids containing a tolerable amount of the drug and an excess amount of CD."}, "[6]": {"assay": "UVA1 (365 nm) photodegradation in aqueous buffer, UV–vis spectra / RP-HPLC", "assay_type": "physicochemical", "conditions": "for UVA1 photodegradation (spectral change): 50 μM, aqueous; for disruption on exposure to UV light: 4 h", "experimental": "as §1"}, "[7]": {"assay": "Phase-solubility diagram with HP-β-CD", "assay_type": "physicochemical", "set-up": "stability constant K1:2 with HP-β-CD: unit not given here"}, "[8]": {"assay": "Flask-shaking 1-octanol/water partition, log D–pH profile fitted to Avdeef's diagram", "assay_type": "physicochemical", "conditions": "modified Britton–Robinson buffers pH 5–11.5, 298 K", "experimental": "The aqueous-phase solvents were prepared by mixing 25 mM KH2PO4 and 25 mM Na2HPO4 solutions in 25 mM Pi buffer. The pH was adjusted before fixing the prescribed concentrations of the acid components of the buffer. The JP1 and JP2 buffer solutions were 10 mM sodium citrate/HCl buffer (pH 1.2) and Pi buffer (pH 6.8), which were prepared in compliance with the description for solution media for the dissolution test in Japanese Pharmacopeia (JP)-implemented international harmonization. The modified Britton–Robinson universal pH buffer comprised 28.6 mM KH2PO4, 28.6 mM HBO2, and 28.6 mM NaCl, titrated with 1 M NaOH (here, modified means elimination of barbital to cancel its interaction with organic solutes). For the partition equilibrium examination, the aqueous saturated 1-octanol phase comprised 1-octanol, which was flooded with a modified Britton–Robinson buffer adjusted to the appropriate pH in advance.\nThe hydrophobic drug dissolved in the aqueous saturated 1-octanol phase was mixed with an isochoric solution of the modified Britton–Robinson buffer (pH 5–11.5), saturated with 1-octanol. Thereafter, the samples in the screw-capped vials were machine-shaken at 298 K in a thermostatic chamber for 60 min and subsequently kept stationary for 60 min; the procedure corresponds to the conventional “flask-shaking” method.[41]−[43] After settling, the pH in the aqueous phase was confirmed using pH indicator strips (MColoHast pH 0–6.0, MQuant pH 7.5–14, and MQuant pH 0–14, Merck, Germany) to be that of the adjusted pH value. Aliquots (10 μL) from the 1-octanol and the aqueous layers were injected into the HPLC instrument. The 1-octanol/water partition coefficients, log P (equivalent to log KOW), and acid dissociation constants, pKa, were optimized using curve fitting, approximated by eq 1 [drawing 1] 1 which is Avdeef’s diagram[44] derived from the Henderson–Hasselbalch expression for the equilibrium between the protonated and deprotonated species. The curve-fitting procedures used the solver module of Microsoft Excel 2016 with the implemented GRG nonlinear option. Approximate curves corresponding to these optimized parameters were drawn, and the pKa and log P values for AVB, OXB, and CUR were obtained."}, "[9]": {"conditions": "cited from earlier work", "remark": "listed apart in the source"}, "[10]": {"set-up": "method as in Yan et al. 95", "conditions": "ref Yan et al. 95; cited from earlier work"}, "[11]": {"conditions": "cited from earlier work", "remark": "listed apart in the source"}, "[12]": {"conditions": "25 mM Pi/NaOH buffer pH 6.8, 298 K, Figure 2, in M-1 (unit assumed)"}, "[13]": {"conditions": "25 mM Pi/NaOH buffer pH 6.8, 298 K, Figure 2"}}, "note": "Read-outs that look alike come from different tables or passages of the source.", "data": [{"molecule": "CCCCC(CC)COC(=O)C(C#N)=C(c1ccccc1)c1ccccc1", "note": "(stereo not shown) [Octocrylene (OCR), octocrylene]", "values": [{"measurement": "biodegradability", "setting": "[1]", "result": "poorly biodegradable"}]}, {"molecule": "O=S(=O)(O)c1ccc2[nH]c(-c3ccccc3)nc2c1", "note": "[Ensulizole, ensulizole]", "values": [{"measurement": "risk / toxicity property", "setting": "[1]", "result": "With photo-oxidizing properties"}]}, {"molecule": "COc1ccc(C(=O)c2ccccc2)c(O)c1", "note": "[OXB]", "values": [{"measurement": "concentration change under UVA1 irradiation (290 nm absorbance)", "setting": "[2]; up to 50 h", "result": "marginally reduced"}, {"measurement": "stability under solar light compared to UVA1 irradiation", "setting": "[3]; presence or absence of β-CD", "result": "more significant than that observed under UVA1 irradiation"}, {"measurement": "log Kow", "setting": "[4]; Chart 1", "result": 3.79}, {"measurement": "reported pKa", "setting": "[4]", "result": 7.6}, {"measurement": "stability constant K1:1 with β-CD", "setting": "[5]; [12]", "result": 2019}, {"measurement": "UVA1 photodegradation (spectral change)", "setting": "[6]; absence of β-CD", "result": "maintenance of the OXB spectrum for 2 days"}, {"measurement": "UVA1 photodegradation (spectral change)", "setting": "[6]; presence of β-CD", "result": "maintenance of the OXB spectrum for 2 days"}, {"measurement": "stability constant K1:1 with HP-β-CD", "setting": "[7]; [12]", "result": 366.8}, {"measurement": "phase-solubility diagram type (Higuchi and Connors) with HP-β-CD", "setting": "[7]; pH 6.8", "result": "AL-type"}, {"measurement": "pKa", "setting": "[8]; from log D–pH curve fitting, read-out: acid dissociation constant, pKa", "result": 7.97}, {"measurement": "logP", "setting": "[8]; neutral form, curve fitting, read-out: 1-octanol/water partition coefficient, log P", "result": 2.99}]}, {"molecule": "curcumin", "values": [{"measurement": "effect of equimolar and 4 mM β-CD on photodegradation velocity / first-order rate", "setting": "[2]; UVA1 365 nm, 25 μM", "result": "decreased"}, {"measurement": "change in absorption peaks under solar light", "setting": "[3]; presence of β-CD", "result": "significant changes in absorption peaks"}, {"measurement": "log P", "setting": "[4]", "result": 3.2}, {"measurement": "updated pKa (first value)", "setting": "[4]", "result": 7.56}, {"measurement": "updated pKa (second value)", "setting": "[4]", "result": 8.72}, {"measurement": "updated pKa (third value)", "setting": "[4]", "result": 10.17}, {"measurement": "pKa (keto-enol)", "setting": "[4]; first of three pKa values", "result": 7.8}, {"measurement": "pKa (first phenolic OH)", "setting": "[4]; second of three pKa values", "result": 8.5}, {"measurement": "pKa (second phenolic OH)", "setting": "[4]; third of three pKa values", "result": 9.0}, {"measurement": "stability constant K1:2 with β-CD", "setting": "[5]; [13]", "result": 74.41}, {"measurement": "stability constant K1:1 with β-CD", "setting": "[5]; [12]", "result": 771.7}, {"measurement": "phase-solubility diagram type (Higuchi and Connors) with β-CD", "setting": "[5]; pH 6.8", "result": "AP-type"}, {"measurement": "stability constant K1:1 with β-CD", "setting": "[5]; pH 6.8", "result": 771.7, "unit": "M^–1"}, {"measurement": "stability constant K1:1 with HP-β-CD", "setting": "[9]; ref Celebioglu and Uyar 84", "result": 3073, "unit": "M^–1"}, {"measurement": "stability constant K1:1 with HP-β-CD", "setting": "[9]; ref Li et al. 85", "result": 2941, "unit": "M^–1"}, {"measurement": "degradation under 425 nm light compared to 620 nm light", "setting": "[10]", "result": 1.7, "unit": "times faster"}, {"measurement": "CUR saturation concentration in reported AN-type diagram", "setting": "[11]", "result": "≤ 0.00012", "unit": "mM"}, {"measurement": "stability constant K1:1 with β-CD", "setting": "[11]; ref Chen et al. 83", "result": 198, "unit": "M^–1"}, {"measurement": "stability constant K1:1 with β-CD", "setting": "[11]; ref Mashaqbef et al. 81", "result": 487.3, "unit": "M^–1"}, {"measurement": "CUR solubility in reported phase-solubility diagram", "setting": "[11]; speculated by the authors from the report", "result": "≤ 16", "unit": "µM"}, {"measurement": "disruption on exposure to UV light", "setting": "[6]; solution containing β-CD", "result": 31.90, "unit": "%"}, {"measurement": "disruption on exposure to UV light", "setting": "[6]; solution without β-CD", "result": 40.95, "unit": "%"}, {"measurement": "stability constant K1:2 with HP-β-CD", "setting": "[7]; [13]", "result": 2.302}, {"measurement": "stability constant K1:1 with HP-β-CD", "setting": "[7]; [12]", "result": 6619}, {"measurement": "phase-solubility diagram type (Higuchi and Connors) with HP-β-CD", "setting": "[7]; pH 6.8", "result": "AP-type"}, {"measurement": "stability constant K1:1 with HP-β-CD", "setting": "[7]; pH 6.8", "result": 6619, "unit": "M^–1"}, {"measurement": "acid dissociation constant, pKa", "setting": "[8]; from log D–pH curve fitting", "result": 8.81}, {"measurement": "1-octanol/water partition coefficient, log P", "setting": "[8]; neutral form, curve fitting", "result": 2.65}]}, {"molecule": "CCCCC(CC)COC(=O)C=Cc1ccc(OC)cc1", "note": "(stereo not shown) [Octinoxate (OCX), octinoxate]", "values": [{"measurement": "risk / toxicity property", "setting": "[1]", "result": "toxic risks for the marine ecosystem"}]}, {"molecule": "CCOCCOC(=O)C=Cc1ccc(OC)cc1", "note": "[Cinoxate, cinoxate]", "values": [{"measurement": "water solubility", "setting": "[1]", "result": "high water solubility"}]}, {"molecule": "CC(O)COC[C@H]1O[C@@H]2O[C@H]3[C@H](O)[C@@H](O)[C@@H](O[C@H]4[C@H](O)[C@@H](O)[C@@H](O[C@H]5[C@H](O)[C@@H](O)[C@@H](O[C@H]6[C@H](O)[C@@H](O)[C@@H](O[C@H]7[C@H](O)[C@@H](O)[C@@H](O[C@H]8[C@H](O)[C@@H](O)[C@@H](O[C@H]1[C@H](O)[C@H]2O)O[C@@H]8COCC(C)O)O[C@@H]7COCC(C)O)O[C@@H]6COCC(C)O)O[C@@H]5COCC(C)O)O[C@@H]4COCC(C)O)O[C@@H]3COCC(C)O", "note": "(stereo partly drawn) [HP-β-CD, hydroxypropyl-β-cyclodextrin]", "values": [{"measurement": "aqueous solubility", "setting": "[4]", "result": "more than 400 mmol/L"}]}, {"molecule": "CCCCC(CC)COC(=O)c1ccc(N(C)C)cc1", "note": "(stereo not shown) [Padimate-O, padimate O]", "values": [{"measurement": "risk / toxicity property", "setting": "[1]", "result": "insignificant risks"}]}, {"molecule": "CC1CC(OC(=O)c2ccccc2O)CC(C)(C)C1", "note": "(stereo not shown) [Homosalate, homosalate]", "values": [{"measurement": "risk / toxicity property", "setting": "[1]", "result": "endocrine-disrupting"}]}]}
